Data on one substance can be found in patent publication US10093654B2, “Therapeutically active compounds and their methods of use” (Agios Pharmaceuticals, Inc., priority 2013, dated 2018).

As a reminder, the IC50 is the concentration that inhibits the measured activity by half. Higher therefore signals weaker potency in that assay.

One data set concerns Caco-2 cells. The data set is described as follows: Caco-2 cell assay. It is filed as in vitro ADME.
Data set [1] concerns the target human P-glycoprotein (P-gp) (Homo sapiens, UniProt P08183). The data set is described as follows: P-gp inhibition. It is filed as in vitro ADME.
The subject of data set [2] is cytochrome P450s and uridine diphosphate (UDP)-glucuronosyltransferase (UGTs). The data set is described as follows: Human enzyme phenotyping. It is filed as in vitro ADME. Particulars: all metabolite peaks at or below the limits of quantitation.
The test system of another data set is U87MG IDH2 (R140Q) tumor. The data set is described as follows: PK/PD study in mouse xenograft model, tumor 2-HG. It is filed as in vivo, female nude mice.
For a further data set, the target named is CYP 2D6 (Homo sapiens, UniProt P10635). Kind of data set: Direct inhibition of CYP 2D6. It is filed as in vitro ADME.
The test system of another data set is human CYP3A4. Kind of data set: CYP3A4 induction. It is filed as in vitro ADME.
The next data set addresses T1, UGT1A1 (Homo sapiens, UniProt P22309).
T1 sequence (P22309 26-533): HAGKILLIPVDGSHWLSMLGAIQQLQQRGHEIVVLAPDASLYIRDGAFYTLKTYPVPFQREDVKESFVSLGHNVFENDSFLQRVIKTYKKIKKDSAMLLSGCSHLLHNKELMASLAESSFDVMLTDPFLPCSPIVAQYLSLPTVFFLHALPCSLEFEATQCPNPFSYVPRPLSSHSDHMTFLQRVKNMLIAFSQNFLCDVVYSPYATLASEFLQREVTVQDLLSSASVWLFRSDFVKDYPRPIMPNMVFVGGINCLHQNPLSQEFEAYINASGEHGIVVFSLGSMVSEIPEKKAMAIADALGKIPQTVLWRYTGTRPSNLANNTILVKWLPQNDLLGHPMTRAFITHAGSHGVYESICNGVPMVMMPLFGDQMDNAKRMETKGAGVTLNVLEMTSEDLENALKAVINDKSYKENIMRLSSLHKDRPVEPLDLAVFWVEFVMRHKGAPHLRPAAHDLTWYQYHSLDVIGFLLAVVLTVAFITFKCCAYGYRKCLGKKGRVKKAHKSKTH
The data set is described as follows: UGT1A1 inhibition by genotype. It is filed as in vitro ADME. Here is the method: Its inhibition of the UGT1A1 *1/*28 and *28/*28 Gilbert's syndrome genotypes are evaluated.

Data set [3] relates to TF-1 IDH2 (R140Q) mutant cells. The data set is described as follows: Differentiation block, EPO-induced expression in TF-1 IDH2 (R140Q) mutant cells. It is filed as cell-based. Particulars: when 2-HG levels fall below 1 mM.
Another data set has as its system TF-1 IDH2 (R140Q) cells. Kind of data set: GM-CSF-independent growth in TF-1 IDH2 (R140Q) cells. It is filed as cell-based. Particulars: 1 μM for 7 days.

Chain of human P-glycoprotein (P-gp) (P08183 whole entry): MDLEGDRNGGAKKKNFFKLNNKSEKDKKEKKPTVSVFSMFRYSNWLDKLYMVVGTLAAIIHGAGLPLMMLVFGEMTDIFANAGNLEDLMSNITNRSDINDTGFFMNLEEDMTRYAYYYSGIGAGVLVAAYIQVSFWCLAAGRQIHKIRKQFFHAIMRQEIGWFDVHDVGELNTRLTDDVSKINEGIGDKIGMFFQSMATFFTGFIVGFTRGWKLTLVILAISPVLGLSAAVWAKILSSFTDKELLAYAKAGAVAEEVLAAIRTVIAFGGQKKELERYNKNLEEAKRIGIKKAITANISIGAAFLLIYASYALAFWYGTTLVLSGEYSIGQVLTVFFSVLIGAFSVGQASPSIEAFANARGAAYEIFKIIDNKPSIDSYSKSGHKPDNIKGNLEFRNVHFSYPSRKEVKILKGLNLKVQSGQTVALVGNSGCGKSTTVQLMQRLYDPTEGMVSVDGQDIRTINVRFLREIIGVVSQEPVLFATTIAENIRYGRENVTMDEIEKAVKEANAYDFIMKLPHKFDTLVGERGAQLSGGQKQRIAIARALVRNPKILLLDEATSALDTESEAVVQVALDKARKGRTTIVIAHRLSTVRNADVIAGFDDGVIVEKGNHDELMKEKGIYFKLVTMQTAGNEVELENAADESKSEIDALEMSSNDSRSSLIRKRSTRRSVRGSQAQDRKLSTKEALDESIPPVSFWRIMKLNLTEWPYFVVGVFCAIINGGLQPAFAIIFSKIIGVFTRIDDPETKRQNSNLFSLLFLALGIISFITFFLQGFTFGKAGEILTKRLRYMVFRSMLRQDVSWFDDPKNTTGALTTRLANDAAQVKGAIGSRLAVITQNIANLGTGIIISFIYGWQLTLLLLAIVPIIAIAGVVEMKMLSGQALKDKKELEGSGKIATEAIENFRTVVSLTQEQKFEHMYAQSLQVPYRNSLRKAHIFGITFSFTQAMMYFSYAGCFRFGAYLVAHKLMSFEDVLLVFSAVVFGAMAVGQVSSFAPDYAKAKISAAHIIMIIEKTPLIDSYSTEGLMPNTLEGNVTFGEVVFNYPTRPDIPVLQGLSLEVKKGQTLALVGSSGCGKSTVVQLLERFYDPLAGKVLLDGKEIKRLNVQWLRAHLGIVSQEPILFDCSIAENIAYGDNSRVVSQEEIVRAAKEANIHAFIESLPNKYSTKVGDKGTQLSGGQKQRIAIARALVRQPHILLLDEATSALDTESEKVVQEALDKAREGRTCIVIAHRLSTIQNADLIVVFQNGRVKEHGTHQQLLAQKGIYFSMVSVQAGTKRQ
Chain of CYP 2D6 (P10635 whole entry): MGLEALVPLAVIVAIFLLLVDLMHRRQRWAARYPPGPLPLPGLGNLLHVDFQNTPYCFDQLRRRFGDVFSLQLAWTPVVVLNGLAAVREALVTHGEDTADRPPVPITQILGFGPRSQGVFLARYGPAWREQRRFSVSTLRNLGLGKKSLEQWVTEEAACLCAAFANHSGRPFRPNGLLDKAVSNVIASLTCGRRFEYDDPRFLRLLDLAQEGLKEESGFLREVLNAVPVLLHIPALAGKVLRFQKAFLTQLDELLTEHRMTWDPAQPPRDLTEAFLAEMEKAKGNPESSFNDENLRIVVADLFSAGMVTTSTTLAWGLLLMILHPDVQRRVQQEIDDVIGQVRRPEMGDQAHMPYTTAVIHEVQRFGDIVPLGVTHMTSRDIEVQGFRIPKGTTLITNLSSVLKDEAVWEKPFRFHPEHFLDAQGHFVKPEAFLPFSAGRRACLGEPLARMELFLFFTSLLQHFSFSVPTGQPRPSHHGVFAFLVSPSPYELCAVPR

Consider “2-Methyl-1-[(4-[6-(trifluoromethyl)pyridin-2-yl]-6-{[2-(trifluoromethyl)pyridin-4-yl]amino}-1,3,5-triazin-2-yl)amino]propan-2-ol methanesulfonate [compound 1]”, for which, in the data set on Caco-2 cells, the “permeability Papp” value is > 17.9 ×10⁻⁶ cm/s. For the same substance, the “substrate for human P-gp or BCRP in vitro” value in the data set with Caco-2 cells was “does not appear to be a substrate”. Further, the P-gp inhibition was 87% in data set [1] (5 μM) and 99% in data set [1] (100 μM). Further, in data set [2], the “contribution of CYPs 1A2, 2C8, 2C9, 3A4 and UGTs 1A1, 1A3, 2B7, 2B15 to metabolism” value was “at low levels”. Further, in the data set with U87MG IDH2 (R140Q) tumor (estimated), the “EAUC90[0-12 hr], AUC0-12 hr for sustained 90% tumor 2-HG inhibition” value is recorded as “approximately 5000 hr·ng/mL”. In addition, the “EAUC97[0-12 h], AUC0-12 hr for sustained 97% tumor 2-HG inhibition” value in the data set with U87MG IDH2 (R140Q) tumor (estimated) was ~15200 ng·h/mL. Further, the “tumor 2-HG concentration” value in the data set on U87MG IDH2 (R140Q) tumor (following a single oral dose) was “decreases rapidly”. Further, the IC50 at CYP 2D6 worked out at 21 µM; at UGT1A1 (*1/*1 genotype) it was 1.9 µM; against UGT1A1 (*1/*28 genotype) it was 3.5 µM; on UGT1A1 (*28/*28 genotype), 10 µM. Moreover, the “induction of human CYP3A4” value in the data set with human CYP3A4 is “weak inducers”. Besides, the “victim of strong CYP3A4 inducers such as rifampicin” value in the data set with human CYP3A4 (used as a marker substrate) was “neither compound appears to be a victim”. Besides, the “EPO-induced expression of hemoglobin gamma ½ and Kruppel-like factor 1 (KLF-1)” value in data set [3] is recorded as “restores”. Besides, the GM-CSF independent growth result with TF-1 IDH2 (R140Q) cells was “reversed”.
